Experimental data: patent US20230416249A1, “N-[2-({4-[3-(ANILINO)-4-OXO-4,5,6,7-TETRAHYDRO-1H-PYRROLO[3,2-C]PYRIDIN-2-YL]PYRIDIN-3-YL)OXY)ETHYL]PROP-2-ENAMIDE DERIVATIVES AND SIMILAR COMPOUNDS AS EGFR INHIBITORS FOR THE TREATMENT OF CANCER” (Bayer Aktiengesellschaft, priority 2020, published 2023)
Values joined by “and” are separate entries in the source; they are usually repeats but may differ in a detail not shown here. Equal values may be shown once.

Key:
[1] = target: Ba/F3-EGFR-L858R T790M cells (Homo sapiens, UniProt P00533, T790M/L858R, cells depend on it); assay: Ba/F3 cell survival assay (Cell Titer-Glo), EGFR-L858R T790M; type: cell-based; conditions: 48 h, without IL-3, 10 ng/mL EGF; read-out: BA/F3 (L858R T790M) IC50
Protocol: (§1) 293T cells from ATCC were transfected with pBABEpuro expression constructs for EGFR-L858R, EGFR-E746_A750del, EGFR-L858R T790M, or EGFR-E746_A750del T790M, and pCL-Eco packaging vector using Fugene-6 transfection reagent from Promega. Plates were incubated at 37° C. for 48 h. Retrovirus was harvested by filtering the media supernatant through a 0.45 μm filter.
(§2) Ba/F3 cells purchased from DSMZ were grown in RPMI+10% FBS+10 ng/mL IL-3 and infected with filtered retroviral supernatant at a 1:2 dilution. Polybrene was added to a concentration of 8 μg/mL, plates were spun for 90 min, and incubated for 16 h at 37° C. 2 μg/mL puromycin was added to the infected cells 24 h after infection and cells were continually grown in the presence of puromycin and 10 ng/mL IL-3. Following stably expressing Ba/F3 cell lines were generated: Ba/F3-EGFR-L858R, Ba/F3-EGFR-E746_A750del, Ba/F3-EGFR-L858R T790M, or Ba/F3-EGFR-E746_A750del T790M.
(§3) For cell survival assays, Ba/F3 cells were grown to a density of 1-2 million cells per mL, spun down and resuspended in media without IL-3, and replated at a concentration 200,000-500,000 cells per mL. The cells ectopically expressing EGFR-L858R, EGFR-E746_A750del, EGFR-L858R T790M, or EGFR-E746_A750del T790M were plated with 10 ng/mL Millipore Culture grade EGF. The cells ectopically expressing pBABEpuro empty vector were plated with 10 ng/mL IL-3.
(§4) 2 days later, cells were plated in 50 μL in a 384 well plate at a concentration of 4000 cells per well for cells assayed in the absence of IL-3 and 2000 cells per well for cells assayed in the presence of IL-3. 100 nL of compound was added to each well using a 100 nL pin head, and plates were incubated at 37° C. for 48 h.
(§5) Cell viability was measured by adding 20 μL of Cell Titer-Glo Luminescent Cell Viability Reagent diluted 1:3 in PBS. Plates were sealed with Perkin Elmer Top-Seal, inverted several times to mix, and immediately centrifuged at 1000 rpm for 2 min. Plates were incubated in low light conditions for 8-10 min and luminescence was measured.

[2] = target: Ba/F3-EGFR-insSVD cells (Homo sapiens, UniProt P00533, DUP768-770, cells depend on it); assay: Ba/F3 cell survival assay (Cell Titer-Glo), EGFR-insSVD; type: cell-based; conditions: 48 h, without IL-3, 10 ng/mL EGF; read-out: BA/F3 (insSVD) IC50
Protocol: as §1, with “WT EGFR” for “EGFR-L858R, EGFR-E746_A750del, EGFR-L858R T790M,”, “EGFR-insSVD, or EGFR-insSVD” for “EGFR-E746_A750del”
as §2, with “Ba/F3-EGFR-WT, Ba/F3-EGFR-insSVD, Ba/F3-EGFR-insSVD” for “Ba/F3-EGFR-L858R, Ba/F3-EGFR-E746_A750del, Ba/F3-EGFR-L858R”, “(Ba/F3—vector-control).” for “or Ba/F3-EGFR-E746_A750del T790M.”
as §3, with “WT EGFR, EGFR-insSVD,” for “EGFR-L858R, EGFR-E746_A750del, EGFR-L858R T790M,”, “EGFR-insSVD” for “EGFR-E746_A750del”
as §4, §5

[3] = target: Ba/F3-EGFR-WT cells (Homo sapiens, UniProt P00533); assay: Ba/F3 cell survival assay (Cell Titer-Glo), WT EGFR; type: cell-based; conditions: 48 h, without IL-3, 10 ng/mL EGF; read-out: BA/F3 (wild type) IC50
Protocol: as §1, with “WT EGFR” for “EGFR-L858R, EGFR-E746_A750del, EGFR-L858R T790M,”, “EGFR-insSVD, or EGFR-insSVD” for “EGFR-E746_A750del”
as §2, with “Ba/F3-EGFR-WT, Ba/F3-EGFR-insSVD, Ba/F3-EGFR-insSVD” for “Ba/F3-EGFR-L858R, Ba/F3-EGFR-E746_A750del, Ba/F3-EGFR-L858R”, “(Ba/F3—vector-control).” for “or Ba/F3-EGFR-E746_A750del T790M.”
as §3, with “WT EGFR, EGFR-insSVD,” for “EGFR-L858R, EGFR-E746_A750del, EGFR-L858R T790M,”, “EGFR-insSVD” for “EGFR-E746_A750del”
as §4, §5

[4] = target: Ba/F3-EGFR-E746_A750del T790M cells (Homo sapiens, UniProt P00533, DEL746-750/T790M, cells depend on it); assay: Ba/F3 cell survival assay (Cell Titer-Glo), EGFR-E746_A750del T790M; type: cell-based; conditions: 48 h, without IL-3, 10 ng/mL EGF; read-out: BA/F3 (E746_A750del T790M) IC50
Protocol: as §1, §2, §3, §4, §5

[5] = target: T1, mutEGFR (D770_N771insSVD) (Homo sapiens, UniProt P00533, DUP768-770); assay: Exon20-Mutant-EGFR(D770_N771insSVD) kinase assay (TR-FRET); type: biochemical; conditions: GST-EGFR ins SVD, 2 mM ATP, 15 min pre-incubation
T1 construct: GST-EGFR #3 (SVD between D770 and N771); made in house; host or cells: Sf9 insect cells (baculovirus)
From the text: Inhibitory activity of compounds of the present invention against an Epidermal Growth Factor Receptor (EGFR) with an insertion of the amino acids sequence SVD between D770 and N771 was quantified employing the TR-FRET based kinase activity assay as described in the following paragraphs.
A recombinant fusion protein of N-terminal Glutathion-S-Transferase (GST) and a fragment of human EGFR variant (amino acids R669 to A1210 with insertion of the amino acids sequence SVD between D770 and N771 (“EGFR ins SVD”), expressed in Sf9 insect cells and purified via affinity chromatography using Glutathion Sepharose as described above, was used as a kinase. As substrate for the kinase reaction the biotinylated peptide biotin-Ahx-AEEEEYFELVAKKK (SEQ ID NO: 6) (C-terminus in amide form) was used which can be purchased e.g. form the company Biosynthan GmbH (Berlin-Buch, Germany).
For the assay 50 nl of a 100-fold concentrated solution of the test compound in DMSO was pipetted into either a black low volume 384 well microtiter plate or a black 1536 well microtiter plate (both Greiner Bio-One, Frickenhausen, Germany), 2 μl of a solution of EGFR in aqueous assay buffer [50 mM Hepes pH 7.0, 10 mM MgCl2, 1 mM dithiothreitol, 0.5 mM EGTA, 0.3 mM activated sodium ortho-vanadate, 0.005% (w/v) bovine serum albumin, 0.005% (v/v) Tween-20] were added and the mixture was incubated for 15 min at 22° C. to allow pre binding of the test compounds to the enzyme before the start of the kinase reaction. Then the kinase reaction was started by the addition of 3 μL of a solution of adenosine tri phosphate (ATP, 3.33 mM=>final conc. in the 5 μL assay volume is 2 mM) and substrate (1.67 μM=>final conc. in the 5 μL assay volume is 1 μM) in assay buffer and the resulting mixture was incubated for a reaction time of 30 min at 22° C. The concentration of EGFR was adjusted depending of the activity of the enzyme lot and was chosen appropriate to have the assay in the linear range, typical concentration was 15 pg/μl. The reaction was stopped by the addition of 3 μl of a solution of HTRF detection reagents (83.3 nM streptavidine-XL665 [Cisbio Bioassays, Codolet, France] and 1.67 nM PT66-Tb-Cryptate, a terbium-cryptate labelled anti-phospho-tyrosine antibody from Cisbio Bioassays [instead of the PT66 Tb cryptate PT66 Eu Chelate from Perkin Elmer can also be used]) in an aqueous EDTA-solution (133.3 mM EDTA, 0.2% (w/v) bovine serum albumin in 50 mM HEPES pH 7.5).
The resulting mixture was incubated 1 h at 22° C. to allow the binding of the biotinylated phosphorylated peptide to the streptavidine-XL665 and the PT66-Tb-Cryptate. Subsequently the amount of phosphorylated substrate was evaluated by measurement of the resonance energy transfer from the PT66-Tb-Cryptate to the streptavidine-XL665. Therefore, the fluorescence emissions at 620 nm and 665 nm after excitation at 337 nm were measured in a HTRF reader, e.g. a Pherastar (BMG Labtechnologies, Offenburg, Germany) or a Viewlux (Perkin-Elmer). The ratio of the emissions at 665 nm and at […] was taken as the measure for the amount of phosphorylated substrate. The data were normalised (enzyme reaction without inhibitor=0% inhibition, all other assay components but no enzyme=100% inhibition).

T1 sequence (P00533 with tags, fused parts or gaps DUP768-770): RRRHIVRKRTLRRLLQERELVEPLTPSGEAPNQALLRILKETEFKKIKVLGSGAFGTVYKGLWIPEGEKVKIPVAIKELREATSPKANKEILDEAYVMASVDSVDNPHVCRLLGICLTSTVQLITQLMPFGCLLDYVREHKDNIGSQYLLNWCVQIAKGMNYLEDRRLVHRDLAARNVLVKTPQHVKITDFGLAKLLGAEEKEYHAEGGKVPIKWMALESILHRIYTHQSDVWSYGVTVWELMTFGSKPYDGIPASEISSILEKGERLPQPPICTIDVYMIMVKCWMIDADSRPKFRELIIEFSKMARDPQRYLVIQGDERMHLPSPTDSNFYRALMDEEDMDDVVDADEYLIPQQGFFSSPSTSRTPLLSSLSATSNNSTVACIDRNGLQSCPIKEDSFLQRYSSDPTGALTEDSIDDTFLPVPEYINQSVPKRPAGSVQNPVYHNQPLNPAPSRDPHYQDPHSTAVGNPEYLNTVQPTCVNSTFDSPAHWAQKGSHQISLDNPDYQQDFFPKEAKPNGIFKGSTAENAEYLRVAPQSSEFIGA
Chain of Ba/F3-EGFR-WT cells (P00533 whole entry, stated change not applied): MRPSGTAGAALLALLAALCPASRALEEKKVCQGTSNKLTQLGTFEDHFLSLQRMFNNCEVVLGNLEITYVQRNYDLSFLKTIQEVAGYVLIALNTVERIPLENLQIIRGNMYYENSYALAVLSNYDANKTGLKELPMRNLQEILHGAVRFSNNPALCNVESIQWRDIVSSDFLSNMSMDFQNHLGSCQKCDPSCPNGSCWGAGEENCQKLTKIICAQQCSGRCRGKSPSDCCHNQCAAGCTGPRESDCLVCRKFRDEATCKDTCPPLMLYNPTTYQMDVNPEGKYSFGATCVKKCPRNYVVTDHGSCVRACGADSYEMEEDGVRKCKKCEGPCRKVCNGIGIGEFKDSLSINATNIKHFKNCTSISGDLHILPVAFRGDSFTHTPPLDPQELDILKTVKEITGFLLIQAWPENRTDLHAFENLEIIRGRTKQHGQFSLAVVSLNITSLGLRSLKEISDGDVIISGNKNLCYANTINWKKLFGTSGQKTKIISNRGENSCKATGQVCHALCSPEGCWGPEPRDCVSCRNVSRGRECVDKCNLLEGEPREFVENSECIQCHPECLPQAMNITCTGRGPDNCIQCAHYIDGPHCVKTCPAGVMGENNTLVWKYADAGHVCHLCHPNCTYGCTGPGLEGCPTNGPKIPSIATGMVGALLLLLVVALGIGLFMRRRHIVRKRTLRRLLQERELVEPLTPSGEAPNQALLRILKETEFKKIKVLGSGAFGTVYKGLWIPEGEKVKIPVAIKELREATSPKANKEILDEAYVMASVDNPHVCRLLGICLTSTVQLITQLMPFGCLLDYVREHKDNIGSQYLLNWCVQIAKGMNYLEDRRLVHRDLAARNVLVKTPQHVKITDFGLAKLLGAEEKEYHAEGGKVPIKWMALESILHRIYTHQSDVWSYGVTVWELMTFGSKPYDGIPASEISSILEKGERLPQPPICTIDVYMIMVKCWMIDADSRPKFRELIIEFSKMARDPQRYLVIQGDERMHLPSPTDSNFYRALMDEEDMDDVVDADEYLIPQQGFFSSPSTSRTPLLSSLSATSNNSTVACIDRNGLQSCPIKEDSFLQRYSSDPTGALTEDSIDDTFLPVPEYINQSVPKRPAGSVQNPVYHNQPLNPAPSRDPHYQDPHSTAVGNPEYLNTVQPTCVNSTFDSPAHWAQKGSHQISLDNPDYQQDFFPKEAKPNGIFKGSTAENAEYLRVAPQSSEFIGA
Chain of Ba/F3-EGFR-L858R T790M cells (P00533 whole entry T790M/L858R): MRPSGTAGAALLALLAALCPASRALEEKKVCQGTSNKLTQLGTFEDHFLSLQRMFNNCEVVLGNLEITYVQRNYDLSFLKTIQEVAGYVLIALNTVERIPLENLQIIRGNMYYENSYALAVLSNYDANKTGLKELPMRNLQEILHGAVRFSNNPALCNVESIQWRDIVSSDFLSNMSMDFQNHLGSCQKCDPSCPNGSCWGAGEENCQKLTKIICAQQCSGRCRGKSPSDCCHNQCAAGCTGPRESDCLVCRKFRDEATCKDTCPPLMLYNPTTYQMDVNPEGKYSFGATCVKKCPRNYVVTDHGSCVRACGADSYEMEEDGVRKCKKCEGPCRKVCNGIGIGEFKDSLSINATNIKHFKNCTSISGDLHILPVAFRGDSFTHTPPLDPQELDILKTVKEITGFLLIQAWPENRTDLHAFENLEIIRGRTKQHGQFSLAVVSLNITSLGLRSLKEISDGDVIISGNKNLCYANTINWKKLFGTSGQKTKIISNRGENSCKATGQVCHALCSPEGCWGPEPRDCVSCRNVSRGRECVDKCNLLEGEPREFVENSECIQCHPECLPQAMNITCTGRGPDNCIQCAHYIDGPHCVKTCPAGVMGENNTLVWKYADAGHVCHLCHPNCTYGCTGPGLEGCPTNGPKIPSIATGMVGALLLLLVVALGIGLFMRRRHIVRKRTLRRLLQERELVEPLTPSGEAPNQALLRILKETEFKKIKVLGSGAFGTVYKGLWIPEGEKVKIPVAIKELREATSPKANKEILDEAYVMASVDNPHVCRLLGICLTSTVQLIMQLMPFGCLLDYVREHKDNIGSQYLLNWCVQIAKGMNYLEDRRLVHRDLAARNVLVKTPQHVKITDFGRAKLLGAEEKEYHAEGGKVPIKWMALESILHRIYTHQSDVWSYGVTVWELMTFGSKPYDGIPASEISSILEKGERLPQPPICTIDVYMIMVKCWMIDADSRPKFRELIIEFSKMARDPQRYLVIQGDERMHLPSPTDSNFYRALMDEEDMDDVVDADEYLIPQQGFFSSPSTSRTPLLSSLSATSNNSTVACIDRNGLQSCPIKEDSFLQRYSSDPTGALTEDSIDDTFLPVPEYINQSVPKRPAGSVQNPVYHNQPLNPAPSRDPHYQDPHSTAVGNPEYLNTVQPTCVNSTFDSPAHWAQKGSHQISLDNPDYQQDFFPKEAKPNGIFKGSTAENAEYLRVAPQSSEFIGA
Chain of Ba/F3-EGFR-E746_A750del T790M cells (P00533 with tags, fused parts or gaps DEL746-750/T790M): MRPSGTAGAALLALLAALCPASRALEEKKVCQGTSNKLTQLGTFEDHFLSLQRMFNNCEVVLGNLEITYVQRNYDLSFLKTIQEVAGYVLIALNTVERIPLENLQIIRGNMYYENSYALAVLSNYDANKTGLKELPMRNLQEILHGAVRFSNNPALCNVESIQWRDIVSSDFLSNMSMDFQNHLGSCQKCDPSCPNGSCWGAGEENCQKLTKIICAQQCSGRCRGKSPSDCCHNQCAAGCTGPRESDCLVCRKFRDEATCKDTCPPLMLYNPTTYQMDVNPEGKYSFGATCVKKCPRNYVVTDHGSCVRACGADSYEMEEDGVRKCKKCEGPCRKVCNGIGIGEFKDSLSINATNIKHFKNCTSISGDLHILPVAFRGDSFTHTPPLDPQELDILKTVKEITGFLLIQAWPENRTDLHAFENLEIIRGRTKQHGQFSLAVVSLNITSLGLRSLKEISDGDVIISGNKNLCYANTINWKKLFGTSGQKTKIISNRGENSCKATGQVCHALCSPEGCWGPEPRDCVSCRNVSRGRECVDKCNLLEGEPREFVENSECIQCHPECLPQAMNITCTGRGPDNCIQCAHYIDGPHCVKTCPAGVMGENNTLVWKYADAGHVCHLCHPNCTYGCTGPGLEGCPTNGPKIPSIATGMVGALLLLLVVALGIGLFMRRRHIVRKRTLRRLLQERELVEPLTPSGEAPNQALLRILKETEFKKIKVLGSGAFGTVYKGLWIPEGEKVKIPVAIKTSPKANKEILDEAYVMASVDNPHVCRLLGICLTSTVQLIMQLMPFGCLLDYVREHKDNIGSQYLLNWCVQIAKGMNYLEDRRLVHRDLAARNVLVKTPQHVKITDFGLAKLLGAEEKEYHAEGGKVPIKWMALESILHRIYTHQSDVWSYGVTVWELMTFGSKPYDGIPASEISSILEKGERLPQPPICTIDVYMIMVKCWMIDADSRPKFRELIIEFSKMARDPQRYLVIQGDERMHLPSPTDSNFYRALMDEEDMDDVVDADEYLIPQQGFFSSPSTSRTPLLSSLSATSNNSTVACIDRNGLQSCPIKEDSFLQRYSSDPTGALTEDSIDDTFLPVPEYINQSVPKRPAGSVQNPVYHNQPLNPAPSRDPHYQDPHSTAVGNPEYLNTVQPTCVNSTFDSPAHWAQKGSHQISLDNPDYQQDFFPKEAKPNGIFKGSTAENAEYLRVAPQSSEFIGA

C=CC(=O)NCCOc1cnccc1-c1[nH]c2c(c1Nc1cccc(Cl)c1OC)C(=O)NCC2 [Example 1, N-[2-({4-[3-(3-chloro-2-methoxyanilino)-4-oxo-4,5,6,7-tetrahydro-1H-pyrrolo[3,2-c]pyridin-2-yl]pyridin-3-yl}oxy)ethyl]prop-2-enamide]
GI50 [1]: > 1000 nM | GI50 [2]: 376 nM | GI50 [3]: 3030 nM | GI50 [4]: > 1000 nM | IC50 [5]: 0.155 nM

C=CC(=O)NCCOc1cnccc1-c1[nH]c2c(c1Nc1cccc(F)c1C)C(=O)NCC2 [Example 2, N-[2-({4-[3-(3-fluoro-2-methylanilino)-4-oxo-4,5,6,7-tetrahydro-1H-pyrrolo[3,2-c]pyridin-2-yl]pyridin-3-yl}oxy)ethyl]prop-2-enamide]
GI50 [1]: 215 nM | GI50 [2]: 57.9 nM | GI50 [3]: 907 nM | GI50 [4]: 25.2 nM | IC50 [5]: 0.386 nM

C=CC(=O)NCCOc1cnccc1-c1[nH]c2c(c1Nc1cccc(Cl)c1C)C(=O)NCC2 [Example 3, N-[2-({4-[3-(3-chloro-2-methylanilino)-4-oxo-4,5,6,7-tetrahydro-1H-pyrrolo[3,2-c]pyridin-2-yl]pyridin-3-yl}oxy)ethyl]prop-2-enamide]
GI50 [1]: 201 nM | GI50 [2]: 40.2 nM | GI50 [3]: 566 nM | GI50 [4]: 32.6 nM | IC50 [5]: 0.265 nM

C=CC(=O)NCCCOc1cnccc1-c1[nH]c2c(c1Nc1cccc(Cl)c1OC)C(=O)NCC2 [Example 4, N-[3-({4-[3-(3-chloro-2-methoxyanilino)-4-oxo-4,5,6,7-tetrahydro-1H-pyrrolo[3,2-c]pyridin-2-yl]pyridin-3-yl}oxy)propyl]prop-2-enamide]
GI50 [1]: > 1000 nM | GI50 [2]: 519 nM | GI50 [3]: 4420 nM | GI50 [4]: > 1000 nM | IC50 [5]: 0.305 nM

C=CC(=O)N(C)CCOc1cnccc1-c1[nH]c2c(c1Nc1cccc(Cl)c1OC)C(=O)NCC2 [Example 5, N-[2-({4-[3-(3-chloro-2-methoxyanilino)-4-oxo-4,5,6,7-tetrahydro-1H-pyrrolo[3,2-c]pyridin-2-yl]pyridin-3-yl}oxy)ethyl]-N-methylprop-2-enamide]
GI50 [1]: 12.9 nM | GI50 [2]: 5.77 nM | GI50 [3]: 68 nM | GI50 [4]: 3.39 nM | IC50 [5]: 0.231 nM

C=CC(=O)N(C)CCOc1cnccc1-c1[nH]c2c(c1Nc1cccc(F)c1OC)C(=O)NCC2 [Example 6, N-[2-({4-[3-(3-fluoro-2-methoxyanilino)-4-oxo-4,5,6,7-tetrahydro-1H-pyrrolo[3,2-c]pyridin-2-yl]pyridin-3-yl}oxy)ethyl]-N-methylprop-2-enamide]
GI50 [1]: 26.4 nM | GI50 [2]: 8.94 nM | GI50 [3]: 109 nM | GI50 [4]: 4.96 nM | IC50 [5]: 0.171 nM

C=CC(=O)N(C)CCOc1cnccc1-c1[nH]c2c(c1Nc1ccc(F)cc1)C(=O)NCC2 [Example 7, N-[2-({4-[3-(4-fluoroanilino)-4-oxo-4,5,6,7-tetrahydro-1H-pyrrolo[3,2-c]pyridin-2-yl]pyridin-3-yl}oxy)ethyl]-N-methylprop-2-enamide]
GI50 [1]: 274 nM | GI50 [2]: 146 nM | GI50 [3]: 366 nM | GI50 [4]: 21.9 nM | IC50 [5]: 1.62 nM

COc1c(F)cccc1Nc1c(-c2ccncc2OCCN(C)C(=O)/C=C/CN(C)C)[nH]c2c1C(=O)NCC2 [Example 8, (2E)-4-(dimethylamino)-N-[2-({4-[3-(3-fluoro-2-methoxyanilino)-4-oxo-4,5,6,7-tetrahydro-1H-pyrrolo[3,2-c]pyridin-2-yl]pyridin-3-yl}oxy)ethyl]-N-methylbut-2-enamide]
GI50 [1]: > 1000 nM | GI50 [2]: 240 nM | GI50 [3]: 4700 nM | GI50 [4]: 370 nM | IC50 [5]: 0.554 nM

COc1c(Cl)cccc1Nc1c(-c2ccncc2OCCN(C)C(=O)/C=C/CN(C)C)[nH]c2c1C(=O)NCC2 [Example 9, (2E)-N-[2-({4-[3-(3-chloro-2-methoxyanilino)-4-oxo-4,5,6,7-tetrahydro-1H-pyrrolo[3,2-c]pyridin-2-yl]pyridin-3-yl}oxy)ethyl]-4-(dimethylamino)-N-methylbut-2-enamide]
GI50 [1]: 731 nM and > 1000 nM | GI50 [2]: 263 nM | GI50 [3]: 4520 nM | GI50 [4]: 183 nM | IC50 [5]: 2.48 nM

C=CC(=O)N1CCC[C@H]1COc1cnccc1-c1[nH]c2c(c1Nc1cccc(Cl)c1OC)C(=O)NCC2 [Example 13, 3-(3-chloro-2-methoxyanilino)-2-(3-{[(2S)-1-(prop-2-enoyl)pyrrolidin-2-yl]methoxy}pyridin-4-yl)-1,5,6,7-tetrahydro-4H-pyrrolo[3,2-c]pyridin-4-one]
GI50 [2]: 6.69 nM | GI50 [3]: 51.2 nM | IC50 [5]: 0.206 nM
